Source: BindingDB's records for patent US20260028328 (Chiesi Farmaceutici, 2026)

Experiments:
[1] = molecular target: Epithelial discoidin domain-containing receptor 1 (Homo sapiens, UniProt Q08345); test: Binding Assays
Procedure: (§1) DDR1 and DDR2 binding assays were performed using Life Technologies LanthaScreen™ Europium Kinase Binding assay. The compounds were incubated with 5 nM DDR1 (Carna Biosciences) or 5 nM DDR2 (Life Technologies) for 1 h at rt in white 384-well OptiPlate (PerkinElmer), containing 20 nM or 10 nM Kinase Tracer 178 respectively and 2 nM Europium labelled anti-GST antibody (Life Technologies) in assay buffer (50 mM HEPES pH 7.5, 10 mM MgCI2, 1 mM EGTA and 0.01% BRIJ35). The ratio of fluorescence emission 665 nm/615 nm after excitation at 340 nm was obtained using the Tecan Spark 20M plate reader. IC50 values were determined in GraphPad Prism 7.0 software, using 4 parameter model: log(inhibitor) vs. response. IC50 values were converted in Ki using the Cheng-Prusoff equation (Ki=IC50/(1+[Tracer]/Kd).

[2] = molecular target: T1, Discoidin domain-containing receptor 2 (Homo sapiens, UniProt Q16832); test: Binding Assays
T1 sequence (Q16832 whole entry): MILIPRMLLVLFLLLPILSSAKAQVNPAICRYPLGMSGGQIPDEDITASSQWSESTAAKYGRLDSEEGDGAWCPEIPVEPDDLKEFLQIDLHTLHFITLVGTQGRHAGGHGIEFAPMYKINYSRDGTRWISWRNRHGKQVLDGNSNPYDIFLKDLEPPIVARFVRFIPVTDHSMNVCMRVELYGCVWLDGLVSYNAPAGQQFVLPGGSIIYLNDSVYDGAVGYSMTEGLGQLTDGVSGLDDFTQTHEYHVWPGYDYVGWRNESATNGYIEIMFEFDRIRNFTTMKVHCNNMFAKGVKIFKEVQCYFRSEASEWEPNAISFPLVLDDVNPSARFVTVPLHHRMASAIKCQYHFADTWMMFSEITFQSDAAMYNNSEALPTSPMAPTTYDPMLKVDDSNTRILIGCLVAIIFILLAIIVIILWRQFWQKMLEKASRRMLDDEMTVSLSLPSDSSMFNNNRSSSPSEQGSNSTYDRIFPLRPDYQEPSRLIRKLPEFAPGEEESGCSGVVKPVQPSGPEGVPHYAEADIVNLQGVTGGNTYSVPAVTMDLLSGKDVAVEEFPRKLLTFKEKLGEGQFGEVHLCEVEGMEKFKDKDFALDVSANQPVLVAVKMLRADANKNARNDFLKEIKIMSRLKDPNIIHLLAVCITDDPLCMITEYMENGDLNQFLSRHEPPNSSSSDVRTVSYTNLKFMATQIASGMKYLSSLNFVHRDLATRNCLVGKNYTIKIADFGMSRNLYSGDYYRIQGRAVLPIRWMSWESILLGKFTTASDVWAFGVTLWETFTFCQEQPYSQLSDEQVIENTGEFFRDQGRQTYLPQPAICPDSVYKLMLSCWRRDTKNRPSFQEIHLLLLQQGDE
Procedure: as §1

Chain of Epithelial discoidin domain-containing receptor 1 (Q08345 whole entry, the tested form may be a part): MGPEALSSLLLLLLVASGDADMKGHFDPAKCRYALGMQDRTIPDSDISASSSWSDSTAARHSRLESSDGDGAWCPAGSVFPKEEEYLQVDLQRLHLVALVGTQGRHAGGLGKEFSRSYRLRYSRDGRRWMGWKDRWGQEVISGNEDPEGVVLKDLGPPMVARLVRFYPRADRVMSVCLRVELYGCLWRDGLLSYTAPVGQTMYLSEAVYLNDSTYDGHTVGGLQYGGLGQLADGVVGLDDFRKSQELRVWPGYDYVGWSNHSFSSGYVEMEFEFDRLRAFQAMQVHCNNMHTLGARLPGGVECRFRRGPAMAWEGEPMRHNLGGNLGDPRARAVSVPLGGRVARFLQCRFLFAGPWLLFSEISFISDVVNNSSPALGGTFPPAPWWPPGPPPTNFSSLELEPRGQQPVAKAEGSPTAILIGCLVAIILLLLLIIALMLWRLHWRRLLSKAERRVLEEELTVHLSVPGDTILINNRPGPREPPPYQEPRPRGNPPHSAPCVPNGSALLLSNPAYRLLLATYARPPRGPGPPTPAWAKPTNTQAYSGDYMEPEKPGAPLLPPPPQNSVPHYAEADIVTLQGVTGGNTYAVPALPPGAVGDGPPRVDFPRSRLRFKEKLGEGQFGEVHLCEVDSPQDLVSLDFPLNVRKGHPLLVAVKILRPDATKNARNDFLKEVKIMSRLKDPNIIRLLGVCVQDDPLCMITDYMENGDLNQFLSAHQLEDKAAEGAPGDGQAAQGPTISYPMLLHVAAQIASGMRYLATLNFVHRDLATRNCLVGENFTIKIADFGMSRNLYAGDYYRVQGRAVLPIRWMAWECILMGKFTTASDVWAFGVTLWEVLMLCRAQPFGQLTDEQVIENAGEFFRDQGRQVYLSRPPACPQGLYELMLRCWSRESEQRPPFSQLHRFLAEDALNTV

Ki [1] [µM]	Ki [2] [µM]	SMILES
< 0.005	–	Cc1ccc(C(=O)Nc2cncc(C(F)(F)F)c2)cc1OC1CN(c2cncc(C(N)=O)c2)C1 [US20260028328, Example 139]
0.005 to 0.025	0.025 to 0.1	Cc1ccc(C(=O)Nc2cncc(C(F)(F)F)c2)cc1SC1CN(c2cncnc2)C1 [US20260028328, Example 177]
